{
  "source": "paper PMC5465828",
  "about": "(Research in Pharmaceutical Sciences, 2017)",
  "origin": "cited, not measured here",
  "tested_on": "human colon carcinoma HCT116 cell line",
  "conditions": "read-out: IC50 of doxorubicin in HCT116 cells; doxorubicin alone",
  "data": [
    {"compound": "COc1cccc2c1C(=O)c1c(O)c3c(c(O)c1C2=O)C[C@@](O)(C(=O)CO)C[C@@H]3O[C@H]1C[C@H](N)[C@H](O)[C@H](C)O1", "note": "[doxorubicin]", "values": [
      {"measurement": "IC50", "result": 200, "unit": "nM"}
    ]}
  ]
}
